# Test results from patent US7041470B2, “Method of assaying the susceptibility of biofilms to anti-microbial agents” (University Technologies International, Inc., priority 1996, dated 2006).
# Tests used:
# [1] = system: staphylococcus aureus biofilm; assay: staphylococcus aureus biofilm on projections, antibiotic treatment, manual cfu count; assay type: cell-based
# Experimental: (§1) Up to 8 different antibiotics or biocides can be tested by using 1 row (A-H) for each antimicrobial reagent. […] Rinse the remaining projections in PBS using a troughed vessel 20 and place the colonized projections into the 96 well antibiotic plate and incubate overnight at 37° C. […] (3) From the freshly sonicated plate remove 0.02 ml of the medium from each well and spot plate neat; and 0.025 ml from each well to prepare a serial dilution (10^-1 to 10^-6) and spot plate 0.02 ml (dilutions can be done in microtiter plates, one for each antibiotic). Place the plate containing the remaining medium and bacteria to incubate at 37° C., overnight. Day 4: Assay the sessile survival, by for example reading the plate incubated overnight at 490 nm or by counting the colonies on the plates to determine the actual number of surviving bacteria, or by using some other method known in the art. Several different conventional methods may be used to count the bacteria. It may be done by incubating the sonicated bacteria, taking serial dilutions and visually counting the colony forming units, or automated methods may be used, as for example using an optical reader to determine optical density. […] In the case of using vital dye technology, the biofilm need not be further incubated. In a further embodiment, the assay may be carried out by sonicating the cells until they lyse and release ATP and then adding luciferase to produce a mechanically readable light output. In a still further embodiment, the assay may be carried out directly on the biofilm on the projections using a confocal microscope, although it should be considered that this is difficult to automate. […] Examples are given to show a comparison between counts of planktonic bacteria and counts of sessile bacteria for the same growth conditions. […] The antibiotic was applied to the wells 2-12 of the rows A-G of a 96 well plate as follows: well 2: no antibiotic, well 3: 1000 μg/mL, well 4: 500 μg/mL . . . well 12: 2 μg/mL.
# Escherichia coli biofilm [2] = assay: Escherichia coli biofilm on projections, antibiotic treatment, manual cfu count; assay type: cell-based
# Experimental: as §1, with “(10^−1” for “(10^-1”, “10^−6)” for “10^-6)”, “The initial biofilm was colonized for four hours. The” for “The”, “A-H” for “A-G”, “μg/mL. 250 μL final volume of diluted antibiotic was applied to the wells.” for “μg/mL.”
# [3] = system: Escherichia coli planktonic bacteria; assay: Escherichia coli planktonic bacteria, optical density reading of turbidity; assay type: cell-based; conditions: 490 nm
# Experimental: (§2) Up to 8 different antibiotics or biocides can be tested by using 1 row (A-H) for each antimicrobial reagent. […] Rinse the remaining projections in PBS using a troughed vessel 20 and place the colonized projections into the 96 well antibiotic plate and incubate overnight at 37° C.
# staph. aureus biofilm = assay: staph. aureus biofilm, optical density reading of turbidity; assay type: cell-based, staphylococcus aureus; conditions: 490 nm
# Experimental: (§3) Up to 8 different antibiotics or biocides can be tested by using 1 row (A-H) for each antimicrobial reagent. […] Rinse the remaining projections in PBS using a troughed vessel 20 and place the colonized projections into the 96 well antibiotic plate and incubate overnight at 37° C. […] (3) From the freshly sonicated plate remove 0.02 ml of the medium from each well and spot plate neat; and 0.025 ml from each well to prepare a serial dilution (10^−1 to 10^−6) and spot plate 0.02 ml (dilutions can be done in microtiter plates, one for each antibiotic). Place the plate containing the remaining medium and bacteria to incubate at 37° C., overnight. Day 4: Assay the sessile survival, by for example reading the plate incubated overnight at 490 nm or by counting the colonies on the plates to determine the actual number of surviving bacteria, or by using some other method known in the art.
# [4] = system: staphylococcus epidermidis planktonic bacteria; assay: staphylococcus epidermidis planktonic bacteria, optical density reading of turbidity; assay type: cell-based; conditions: 490 nm
# Experimental: as §2
# Escherichia coli biofilm [5] = assay: Escherichia coli biofilm, optical density reading of turbidity; assay type: cell-based; conditions: 490 nm
# Experimental: as §3
# [6] = system: staph. aureus planktonic bacteria; assay: staph. aureus planktonic bacteria, optical density reading of turbidity; assay type: cell-based, staphylococcus aureus; conditions: 490 nm
# Experimental: as §2
# [7] = system: staphylococcus epidermidis biofilm; assay: staphylococcus epidermidis biofilm, optical density reading of turbidity; assay type: cell-based; conditions: 490 nm
# Experimental: as §3
# [8] = well 5 of doubling dilutions, well 3: 1000 μg/mL to well 12: 2 μg/mL
# [9] = well 6 of doubling dilutions, well 3: 1000 μg/mL to well 12: 2 μg/mL ([…] implied)
# [10] = well 7 of doubling dilutions, well 3: 1000 μg/mL to well 12: 2 μg/mL
# [11] = well 8 of doubling dilutions, well 3: 1000 μg/mL to well 12: 2 μg/mL
# [12] = well 9 of doubling dilutions, well 3: 1000 μg/mL to well 12: 2 μg/mL
# [13] = well 10 of doubling dilutions, well 3: 1000 μg/mL to well 12: 2 μg/mL ([…] implied)
# [14] = well 11 of doubling dilutions, well 3: 1000 μg/mL to well 12: 2 μg/mL
# [15] = well 3: 1000 μg/mL antibiotic, biofilm colonized four hours
# [16] = well 4: 500 μg/mL antibiotic, biofilm colonized four hours
smiles,measurement,setting,value
"O=C(O)c1cn(C2CC2)c2cc(N3CCNCC3)c(F)cc2c1=O [G, Ciprofloxacin]","manually counted cfu, staphylococcus aureus biofilm",[1]; well 3: 1000 μg/mL antibiotic,0 cfu
same,"manually counted cfu, staphylococcus aureus biofilm",[1]; well 4: 500 μg/mL antibiotic,0 cfu
same,"manually counted cfu, staphylococcus aureus biofilm",[1]; [8],0 cfu
same,"manually counted cfu, staphylococcus aureus biofilm",[1]; [9],50 cfu
same,"manually counted cfu, staphylococcus aureus biofilm",[1]; [10],1.0 × 10^2 cfu
same,"manually counted cfu, staphylococcus aureus biofilm",[1]; [11],50 cfu
same,"manually counted cfu, staphylococcus aureus biofilm",[1]; [12],0 cfu
same,"manually counted cfu, staphylococcus aureus biofilm",[1]; [13],0 cfu
same,"manually counted cfu, staphylococcus aureus biofilm",[1]; [14],0 cfu
same,"manually counted cfu, staphylococcus aureus biofilm",[1]; well 12: 2 μg/mL antibiotic,0 cfu
same,"manually counted cfu, Escherichia coli biofilm",Escherichia coli biofilm [2]; [15],0 cfu
same,"manually counted cfu, Escherichia coli biofilm",Escherichia coli biofilm [2]; [16],0 cfu
same,"manually counted cfu, Escherichia coli biofilm",Escherichia coli biofilm [2]; [8],0 cfu
same,"manually counted cfu, Escherichia coli biofilm",Escherichia coli biofilm [2]; [9],0 cfu
same,"manually counted cfu, Escherichia coli biofilm",Escherichia coli biofilm [2]; [10],0 cfu
same,"manually counted cfu, Escherichia coli biofilm",Escherichia coli biofilm [2]; [11],0 cfu
same,"manually counted cfu, Escherichia coli biofilm",Escherichia coli biofilm [2]; [13],0 cfu
same,"manually counted cfu, Escherichia coli biofilm",Escherichia coli biofilm [2]; [14],0 cfu
"CC(C)(O/N=C(\C(=O)N[C@@H]1C(=O)N2C(C(=O)[O-])=C(C[n+]3ccccc3)CS[C@H]12)c1csc(N)n1)C(=O)O [F, ceftazidine]","manually counted cfu, staphylococcus aureus biofilm",[1]; well 3: 1000 μg/mL antibiotic,0 cfu
same,"manually counted cfu, staphylococcus aureus biofilm",[1]; well 4: 500 μg/mL antibiotic,1.0 × 10^2 cfu
same,"manually counted cfu, staphylococcus aureus biofilm",[1]; [8],0 cfu
same,"manually counted cfu, staphylococcus aureus biofilm",[1]; [9],1.0 × 10^2 cfu
same,"manually counted cfu, staphylococcus aureus biofilm",[1]; [10],50 cfu
same,"manually counted cfu, staphylococcus aureus biofilm",[1]; [11],0 cfu
same,"manually counted cfu, staphylococcus aureus biofilm",[1]; [12],0 cfu
same,"manually counted cfu, staphylococcus aureus biofilm",[1]; [13],1.0 × 10^5 cfu
same,"manually counted cfu, staphylococcus aureus biofilm",[1]; [14],4.0 × 10^5 cfu
same,"manually counted cfu, staphylococcus aureus biofilm",[1]; well 12: 2 μg/mL antibiotic,9.0 × 10^5 cfu
same,"optical density reading of turbidity, Escherichia coli planktonic bacteria",[3]; well 3: 1000 μg/mL antibiotic,.123
same,"optical density reading of turbidity, Escherichia coli planktonic bacteria",[3]; well 4: 500 μg/mL antibiotic,.129
same,"optical density reading of turbidity, Escherichia coli planktonic bacteria",[3]; [8],.134
same,"optical density reading of turbidity, Escherichia coli planktonic bacteria",[3]; [9],.137
same,"optical density reading of turbidity, Escherichia coli planktonic bacteria",[3]; [10],.128
same,"optical density reading of turbidity, Escherichia coli planktonic bacteria",[3]; [11],.137
same,"optical density reading of turbidity, Escherichia coli planktonic bacteria",[3]; [12],.137
same,"optical density reading of turbidity, Escherichia coli planktonic bacteria",[3]; [13],.140
same,"optical density reading of turbidity, Escherichia coli planktonic bacteria",[3]; [14],.147
same,"optical density reading of turbidity, Escherichia coli planktonic bacteria",[3]; well 12: 2 μg/mL antibiotic,.152
same,"manually counted cfu, Escherichia coli biofilm",Escherichia coli biofilm [2]; [15],0 cfu
same,"manually counted cfu, Escherichia coli biofilm",Escherichia coli biofilm [2]; [16],0 cfu
same,"manually counted cfu, Escherichia coli biofilm",Escherichia coli biofilm [2]; [8],0 cfu
same,"manually counted cfu, Escherichia coli biofilm",Escherichia coli biofilm [2]; [9],0 cfu
same,"manually counted cfu, Escherichia coli biofilm",Escherichia coli biofilm [2]; [10],0 cfu
same,"manually counted cfu, Escherichia coli biofilm",Escherichia coli biofilm [2]; [11],0 cfu
same,"manually counted cfu, Escherichia coli biofilm",Escherichia coli biofilm [2]; [12],0 cfu
same,"optical density reading of turbidity, staph. aureus biofilm",staph. aureus biofilm; well 3: 1000 μg/mL antibiotic,.779
same,"optical density reading of turbidity, staph. aureus biofilm",staph. aureus biofilm; well 4: 500 μg/mL antibiotic,.830
same,"optical density reading of turbidity, staph. aureus biofilm",staph. aureus biofilm; [8],.777
same,"optical density reading of turbidity, staph. aureus biofilm",staph. aureus biofilm; [9],.739
same,"optical density reading of turbidity, staph. aureus biofilm",staph. aureus biofilm; [10],.719
same,"optical density reading of turbidity, staph. aureus biofilm",staph. aureus biofilm; [11],.840
same,"optical density reading of turbidity, staph. aureus biofilm",staph. aureus biofilm; [12],.806
same,"optical density reading of turbidity, staph. aureus biofilm",staph. aureus biofilm; [13],.882
same,"optical density reading of turbidity, staph. aureus biofilm",staph. aureus biofilm; [14],.924
same,"optical density reading of turbidity, staph. aureus biofilm",staph. aureus biofilm; well 12: 2 μg/mL antibiotic,.916
same,"optical density reading of turbidity, staphylococcus epidermidis planktonic bacteria",[4]; well 3: 1000 μg/mL antibiotic,.359
same,"optical density reading of turbidity, staphylococcus epidermidis planktonic bacteria",[4]; well 4: 500 μg/mL antibiotic,.383
same,"optical density reading of turbidity, staphylococcus epidermidis planktonic bacteria",[4]; [8],.397
same,"optical density reading of turbidity, staphylococcus epidermidis planktonic bacteria",[4]; [9],.410
same,"optical density reading of turbidity, staphylococcus epidermidis planktonic bacteria",[4]; [10],.466
same,"optical density reading of turbidity, staphylococcus epidermidis planktonic bacteria",[4]; [11],.540
same,"optical density reading of turbidity, staphylococcus epidermidis planktonic bacteria",[4]; [12],.615
same,"optical density reading of turbidity, staphylococcus epidermidis planktonic bacteria",[4]; [13],.627
same,"optical density reading of turbidity, staphylococcus epidermidis planktonic bacteria",[4]; [14],.694
same,"optical density reading of turbidity, staphylococcus epidermidis planktonic bacteria",[4]; well 12: 2 μg/mL antibiotic,.853
same,"optical density reading of turbidity, Escherichia coli biofilm",Escherichia coli biofilm [5]; well 3: 1000 μg/mL antibiotic,.121
same,"optical density reading of turbidity, Escherichia coli biofilm",Escherichia coli biofilm [5]; well 4: 500 μg/mL antibiotic,.123
same,"optical density reading of turbidity, Escherichia coli biofilm",Escherichia coli biofilm [5]; [8],1.158
same,"optical density reading of turbidity, Escherichia coli biofilm",Escherichia coli biofilm [5]; [9],.121
same,"optical density reading of turbidity, Escherichia coli biofilm",Escherichia coli biofilm [5]; [11],.120
same,"optical density reading of turbidity, Escherichia coli biofilm",Escherichia coli biofilm [5]; [12],.123
same,"optical density reading of turbidity, Escherichia coli biofilm",Escherichia coli biofilm [5]; [13],1.152
same,"optical density reading of turbidity, Escherichia coli biofilm",Escherichia coli biofilm [5]; [14],1.249
same,"optical density reading of turbidity, Escherichia coli biofilm",Escherichia coli biofilm [5]; well 12: 2 μg/mL antibiotic,1.268
same,"optical density reading of turbidity, staph. aureus planktonic bacteria",[6]; well 3: 1000 μg/mL antibiotic,.073
same,"optical density reading of turbidity, staph. aureus planktonic bacteria",[6]; well 4: 500 μg/mL antibiotic,.076
same,"optical density reading of turbidity, staph. aureus planktonic bacteria",[6]; [8],.081
same,"optical density reading of turbidity, staph. aureus planktonic bacteria",[6]; [9],.079
same,"optical density reading of turbidity, staph. aureus planktonic bacteria",[6]; [10],.076
same,"optical density reading of turbidity, staph. aureus planktonic bacteria",[6]; [11],.079
same,"optical density reading of turbidity, staph. aureus planktonic bacteria",[6]; [12],.078
same,"optical density reading of turbidity, staph. aureus planktonic bacteria",[6]; [13],.111
same,"optical density reading of turbidity, staph. aureus planktonic bacteria",[6]; [14],.564
same,"optical density reading of turbidity, staph. aureus planktonic bacteria",[6]; well 12: 2 μg/mL antibiotic,.717
same,"optical density reading of turbidity, staphylococcus epidermidis biofilm",[7]; well 3: 1000 μg/mL antibiotic,.897
same,"optical density reading of turbidity, staphylococcus epidermidis biofilm",[7]; well 4: 500 μg/mL antibiotic,.888
same,"optical density reading of turbidity, staphylococcus epidermidis biofilm",[7]; [8],1.013
same,"optical density reading of turbidity, staphylococcus epidermidis biofilm",[7]; [9],.855
same,"optical density reading of turbidity, staphylococcus epidermidis biofilm",[7]; [10],.992
same,"optical density reading of turbidity, staphylococcus epidermidis biofilm",[7]; [11],.903
same,"optical density reading of turbidity, staphylococcus epidermidis biofilm",[7]; [12],.920
same,"optical density reading of turbidity, staphylococcus epidermidis biofilm",[7]; [13],.850
same,"optical density reading of turbidity, staphylococcus epidermidis biofilm",[7]; [14],.843
same,"optical density reading of turbidity, staphylococcus epidermidis biofilm",[7]; well 12: 2 μg/mL antibiotic,.902
